The source of these data is ChEMBL document CHEMBL3991601, “The target landscape of clinical kinase drugs” (Science, 2017).

The source made the active and inactive calls. For most assays here, no stated cut-off is given here; in the data, actives have a measured Kd and inactives only a lower limit.

In assay [1] the target is Cyclin-dependent kinase 6 (Homo sapiens, UniProt Q00534).
In assay [2] the target is Protein-tyrosine kinase 6 (Homo sapiens, UniProt Q13882).
The target in assay [3] is T1, Ras-related protein Rab-27A (Homo sapiens, UniProt P51159).
T1 sequence (P51159 whole entry): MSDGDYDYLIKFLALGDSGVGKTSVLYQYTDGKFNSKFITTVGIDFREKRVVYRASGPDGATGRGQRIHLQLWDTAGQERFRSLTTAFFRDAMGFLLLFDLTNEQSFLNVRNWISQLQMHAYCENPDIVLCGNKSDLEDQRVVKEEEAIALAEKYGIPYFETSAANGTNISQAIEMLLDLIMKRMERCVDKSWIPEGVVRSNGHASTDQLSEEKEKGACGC

Assay [4] has as its target T2, Serine/threonine-protein kinase STK11 (Homo sapiens, UniProt Q15831).
T2 sequence (Q15831 whole entry): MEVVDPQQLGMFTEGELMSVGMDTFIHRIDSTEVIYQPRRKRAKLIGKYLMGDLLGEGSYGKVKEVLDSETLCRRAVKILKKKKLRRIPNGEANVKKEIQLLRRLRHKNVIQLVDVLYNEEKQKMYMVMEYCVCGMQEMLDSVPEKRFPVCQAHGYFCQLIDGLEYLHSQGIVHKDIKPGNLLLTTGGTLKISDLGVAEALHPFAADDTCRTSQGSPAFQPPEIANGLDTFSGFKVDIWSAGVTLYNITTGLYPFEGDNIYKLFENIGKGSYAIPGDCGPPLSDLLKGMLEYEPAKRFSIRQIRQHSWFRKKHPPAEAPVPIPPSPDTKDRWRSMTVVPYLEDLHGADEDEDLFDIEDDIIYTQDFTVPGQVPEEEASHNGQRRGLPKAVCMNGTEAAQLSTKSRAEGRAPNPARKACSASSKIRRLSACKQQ

Assay [5] addresses Protein-tyrosine kinase 2-beta (Homo sapiens, UniProt Q14289).
Assay [6] addresses T3, Serine/threonine-protein kinase Nek3 (Homo sapiens, UniProt P51956).
T3 sequence (P51956 whole entry): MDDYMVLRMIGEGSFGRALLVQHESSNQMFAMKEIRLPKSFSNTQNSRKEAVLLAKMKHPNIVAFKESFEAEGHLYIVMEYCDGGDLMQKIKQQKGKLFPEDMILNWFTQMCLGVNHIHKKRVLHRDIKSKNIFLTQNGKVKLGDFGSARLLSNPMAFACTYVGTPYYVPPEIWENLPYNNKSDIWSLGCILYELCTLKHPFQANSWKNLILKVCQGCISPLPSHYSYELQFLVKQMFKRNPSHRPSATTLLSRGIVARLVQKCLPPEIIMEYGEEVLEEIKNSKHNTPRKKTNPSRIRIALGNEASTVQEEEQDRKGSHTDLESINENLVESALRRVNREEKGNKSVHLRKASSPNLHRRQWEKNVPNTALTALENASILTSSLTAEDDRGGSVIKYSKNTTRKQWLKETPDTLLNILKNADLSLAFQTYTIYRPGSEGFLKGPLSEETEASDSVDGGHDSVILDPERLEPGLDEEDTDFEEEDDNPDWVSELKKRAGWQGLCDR

Assay [7] has as its target T4, Mitogen-activated protein kinase kinase kinase 2 (Homo sapiens, UniProt Q9Y2U5).
T4 sequence (Q9Y2U5 whole entry): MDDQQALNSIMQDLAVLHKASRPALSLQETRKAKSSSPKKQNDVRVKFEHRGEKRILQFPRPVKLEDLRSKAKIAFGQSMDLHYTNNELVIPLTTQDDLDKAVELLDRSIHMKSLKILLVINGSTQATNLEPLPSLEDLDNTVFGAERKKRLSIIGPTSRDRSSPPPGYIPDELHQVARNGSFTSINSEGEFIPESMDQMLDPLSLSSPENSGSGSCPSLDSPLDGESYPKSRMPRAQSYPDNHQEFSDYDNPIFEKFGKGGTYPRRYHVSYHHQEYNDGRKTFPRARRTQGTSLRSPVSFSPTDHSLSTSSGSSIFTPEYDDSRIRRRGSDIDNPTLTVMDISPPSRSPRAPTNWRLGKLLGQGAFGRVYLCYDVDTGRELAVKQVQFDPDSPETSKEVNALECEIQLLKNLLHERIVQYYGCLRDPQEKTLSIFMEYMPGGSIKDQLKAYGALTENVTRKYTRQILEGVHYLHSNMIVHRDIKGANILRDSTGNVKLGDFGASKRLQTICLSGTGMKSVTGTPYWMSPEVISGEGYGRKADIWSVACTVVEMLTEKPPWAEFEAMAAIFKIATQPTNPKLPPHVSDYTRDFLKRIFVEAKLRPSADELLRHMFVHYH

Assay [8] has as its target Proto-oncogene tyrosine-protein kinase receptor Ret (Homo sapiens, UniProt P07949).
For the next assay, the target named is Activated CDC42 kinase 1 (Homo sapiens, UniProt Q07912).
Sequence of Activated CDC42 kinase 1 (Q07912 whole entry): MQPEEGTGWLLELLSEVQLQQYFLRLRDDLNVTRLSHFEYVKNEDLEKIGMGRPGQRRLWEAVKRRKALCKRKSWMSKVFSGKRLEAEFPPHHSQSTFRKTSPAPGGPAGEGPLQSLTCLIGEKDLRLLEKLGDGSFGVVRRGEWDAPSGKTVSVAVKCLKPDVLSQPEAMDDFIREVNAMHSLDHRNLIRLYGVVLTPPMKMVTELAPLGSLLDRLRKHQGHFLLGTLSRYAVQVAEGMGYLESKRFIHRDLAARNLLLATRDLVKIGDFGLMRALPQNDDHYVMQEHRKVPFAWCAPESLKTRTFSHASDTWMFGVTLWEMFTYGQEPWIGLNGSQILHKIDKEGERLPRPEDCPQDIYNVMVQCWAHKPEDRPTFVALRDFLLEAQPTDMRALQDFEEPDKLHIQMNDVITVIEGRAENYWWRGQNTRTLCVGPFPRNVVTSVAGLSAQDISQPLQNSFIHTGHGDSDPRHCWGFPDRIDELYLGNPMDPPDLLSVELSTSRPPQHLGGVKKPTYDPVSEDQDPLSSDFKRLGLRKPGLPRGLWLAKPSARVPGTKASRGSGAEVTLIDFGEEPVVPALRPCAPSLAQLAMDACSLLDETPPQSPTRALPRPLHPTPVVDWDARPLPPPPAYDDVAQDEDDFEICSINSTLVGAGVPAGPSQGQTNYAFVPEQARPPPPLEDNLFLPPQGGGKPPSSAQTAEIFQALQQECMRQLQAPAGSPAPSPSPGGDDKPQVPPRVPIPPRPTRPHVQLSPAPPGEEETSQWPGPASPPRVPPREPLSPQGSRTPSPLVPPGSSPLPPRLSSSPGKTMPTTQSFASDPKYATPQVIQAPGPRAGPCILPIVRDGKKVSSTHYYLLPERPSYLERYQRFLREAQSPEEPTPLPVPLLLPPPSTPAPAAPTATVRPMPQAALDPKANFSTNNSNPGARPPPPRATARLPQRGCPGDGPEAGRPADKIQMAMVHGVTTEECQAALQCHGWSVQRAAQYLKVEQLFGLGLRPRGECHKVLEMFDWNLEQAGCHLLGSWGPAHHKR

Sequence of Cyclin-dependent kinase 6 (Q00534 whole entry): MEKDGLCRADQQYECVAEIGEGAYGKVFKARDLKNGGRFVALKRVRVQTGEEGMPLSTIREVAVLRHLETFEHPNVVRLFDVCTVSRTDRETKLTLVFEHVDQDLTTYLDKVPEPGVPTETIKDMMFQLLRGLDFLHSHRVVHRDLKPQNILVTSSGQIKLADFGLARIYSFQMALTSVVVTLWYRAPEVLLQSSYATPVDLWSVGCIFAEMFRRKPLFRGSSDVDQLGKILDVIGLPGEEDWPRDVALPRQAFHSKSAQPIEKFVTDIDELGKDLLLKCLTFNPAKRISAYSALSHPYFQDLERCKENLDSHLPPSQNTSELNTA
Sequence of Protein-tyrosine kinase 6 (Q13882 whole entry): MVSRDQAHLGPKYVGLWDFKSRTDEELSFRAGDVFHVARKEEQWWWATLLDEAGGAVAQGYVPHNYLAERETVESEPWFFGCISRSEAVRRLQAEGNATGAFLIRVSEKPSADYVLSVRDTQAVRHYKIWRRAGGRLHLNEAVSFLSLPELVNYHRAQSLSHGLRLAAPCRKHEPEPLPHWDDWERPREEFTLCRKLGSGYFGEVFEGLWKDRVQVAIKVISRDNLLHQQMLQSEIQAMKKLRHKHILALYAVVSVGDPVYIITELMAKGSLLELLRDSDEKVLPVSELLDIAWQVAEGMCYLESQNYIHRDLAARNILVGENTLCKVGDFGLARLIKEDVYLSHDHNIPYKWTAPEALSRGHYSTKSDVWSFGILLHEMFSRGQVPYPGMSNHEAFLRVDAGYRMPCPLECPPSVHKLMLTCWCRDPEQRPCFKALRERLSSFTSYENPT
Sequence of Proto-oncogene tyrosine-protein kinase receptor Ret (P07949 whole entry): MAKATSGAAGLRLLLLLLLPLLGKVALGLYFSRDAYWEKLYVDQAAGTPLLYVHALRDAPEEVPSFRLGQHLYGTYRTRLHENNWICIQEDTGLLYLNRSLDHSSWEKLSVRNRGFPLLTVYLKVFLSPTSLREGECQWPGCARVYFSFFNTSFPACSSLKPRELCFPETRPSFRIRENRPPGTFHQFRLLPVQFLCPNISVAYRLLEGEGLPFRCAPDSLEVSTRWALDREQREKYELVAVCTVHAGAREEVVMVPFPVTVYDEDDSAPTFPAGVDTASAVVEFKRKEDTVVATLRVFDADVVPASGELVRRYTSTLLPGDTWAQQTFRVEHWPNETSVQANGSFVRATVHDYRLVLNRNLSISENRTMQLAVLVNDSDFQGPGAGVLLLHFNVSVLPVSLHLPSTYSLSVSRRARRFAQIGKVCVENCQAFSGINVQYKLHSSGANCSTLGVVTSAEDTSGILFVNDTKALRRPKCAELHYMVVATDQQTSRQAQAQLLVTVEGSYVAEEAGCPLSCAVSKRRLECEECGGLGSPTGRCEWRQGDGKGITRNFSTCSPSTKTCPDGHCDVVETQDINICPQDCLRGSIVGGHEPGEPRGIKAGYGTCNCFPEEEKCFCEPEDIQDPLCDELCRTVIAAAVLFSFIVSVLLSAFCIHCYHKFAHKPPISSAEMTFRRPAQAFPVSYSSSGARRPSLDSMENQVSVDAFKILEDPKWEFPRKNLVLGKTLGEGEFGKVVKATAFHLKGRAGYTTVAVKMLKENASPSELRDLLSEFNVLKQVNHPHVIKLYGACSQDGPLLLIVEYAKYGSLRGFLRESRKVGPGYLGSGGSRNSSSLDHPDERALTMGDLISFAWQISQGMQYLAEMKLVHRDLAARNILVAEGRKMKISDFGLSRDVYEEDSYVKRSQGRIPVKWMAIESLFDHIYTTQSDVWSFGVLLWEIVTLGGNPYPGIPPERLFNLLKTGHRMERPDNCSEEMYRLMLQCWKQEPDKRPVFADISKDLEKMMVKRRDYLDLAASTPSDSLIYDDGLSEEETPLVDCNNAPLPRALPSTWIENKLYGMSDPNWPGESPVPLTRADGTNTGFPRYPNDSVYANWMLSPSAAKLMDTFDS
Sequence of Protein-tyrosine kinase 2-beta (Q14289 whole entry): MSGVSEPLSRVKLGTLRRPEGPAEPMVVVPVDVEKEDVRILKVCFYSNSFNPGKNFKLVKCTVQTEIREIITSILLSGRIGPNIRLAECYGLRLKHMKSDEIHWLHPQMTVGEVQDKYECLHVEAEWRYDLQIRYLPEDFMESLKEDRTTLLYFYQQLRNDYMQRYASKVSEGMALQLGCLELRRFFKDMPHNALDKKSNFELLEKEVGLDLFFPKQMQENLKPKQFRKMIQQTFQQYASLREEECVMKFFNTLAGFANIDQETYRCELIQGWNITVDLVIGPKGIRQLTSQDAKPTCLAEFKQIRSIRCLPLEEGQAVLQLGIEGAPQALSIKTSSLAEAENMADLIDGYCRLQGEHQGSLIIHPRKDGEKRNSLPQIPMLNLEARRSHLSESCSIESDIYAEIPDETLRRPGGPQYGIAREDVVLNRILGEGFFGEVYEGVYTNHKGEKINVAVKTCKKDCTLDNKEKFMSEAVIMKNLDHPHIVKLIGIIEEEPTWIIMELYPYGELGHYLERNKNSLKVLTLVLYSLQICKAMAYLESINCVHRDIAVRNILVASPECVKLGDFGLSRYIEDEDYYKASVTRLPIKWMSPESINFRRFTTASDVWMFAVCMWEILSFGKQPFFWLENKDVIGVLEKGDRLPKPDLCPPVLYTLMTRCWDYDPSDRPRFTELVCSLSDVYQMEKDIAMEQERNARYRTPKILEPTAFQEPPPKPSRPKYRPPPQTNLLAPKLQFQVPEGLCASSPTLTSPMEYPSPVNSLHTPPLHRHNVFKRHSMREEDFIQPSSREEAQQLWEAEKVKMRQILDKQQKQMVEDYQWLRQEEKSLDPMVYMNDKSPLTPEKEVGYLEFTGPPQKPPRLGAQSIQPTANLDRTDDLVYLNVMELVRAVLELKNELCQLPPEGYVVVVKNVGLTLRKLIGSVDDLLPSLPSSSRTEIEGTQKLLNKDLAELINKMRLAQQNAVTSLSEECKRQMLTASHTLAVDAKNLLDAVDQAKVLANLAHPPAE

With `O=C(Nc1cc(C(F)(F)F)cc(C(F)(F)F)c1)c1cc(Cl)ccc1O` [IMD-0354], the Kd in assay [1], in assay [2], in [3], in assay [4], in assay [5] and in assay [6] was > 30 µM (inactive) each time. Also, the Kd (in [7]; in assay [8]; on Activated CDC42 kinase 1) was > 30 µM (inactive) each time.

Take `CNC(=O)c1cccc2cc(Oc3ccnc4cc(OCC5(N)CC5)c(OC)cc34)ccc12` [LUCITANIB]: the Kd in [1], in [2], in assay [3], in assay [4], in assay [5] and in assay [6] was > 30 µM (inactive) throughout. Moreover, the values for the Kd (in assay [7]; in assay [8]; on Activated CDC42 kinase 1) were > 30 µM (inactive), 0.005 µM (active) and > 30 µM (inactive), respectively.

Take `NC1(c2ccc(-c3nc4ccn5c(=O)[nH]nc5c4cc3-c3ccccc3)cc2)CCC1` [MK-2206]: the Kd in assay [1], in assay [2], in [3], in [4], in assay [5] and in assay [6] was > 30 µM (inactive) throughout. The Kd (in assay [7]; in assay [8]; at Activated CDC42 kinase 1) was > 30 µM (inactive) each time.

In the case of `Cn1cc(-c2cnc3ccc4ccc(CS(=O)(=O)NCc5ccccn5)cc4c(=O)c3c2)cn1` [MK-8033], the Kd in assay [1], in assay [2], in assay [3], in [4], in [5] and in assay [6] was > 30 µM (inactive) in each case. Moreover, the Kd (in assay [7]; in assay [8]; at Activated CDC42 kinase 1) was > 30 µM (inactive) each time.

For `FC(F)(F)c1ccc(/C=C/c2nc(COc3ccc(CCCCn4ccnn4)cc3)co2)cc1` [MUBRITINIB], the Kd in assay [1], in [2], in assay [3], in assay [4], in assay [5] and in assay [6] was > 30 µM (inactive) throughout. Moreover, the Kd (in assay [7]; in [8]; at Activated CDC42 kinase 1) was > 30 µM (inactive) each time.

As to `COc1ncc(-c2ccc3nccc(-c4ccnnc4)c3c2)cc1NS(=O)(=O)c1ccc(F)cc1F` [OMIPALISIB], the Kd in assay [1], in assay [2], in assay [3], in assay [4], in [5] and in assay [6] was > 30 µM (inactive) each time. For the same compound, the Kd (in assay [7]; in assay [8]; on Activated CDC42 kinase 1) was > 30 µM (inactive) each time.

With `CCOc1cc2ncc(C#N)c(Nc3ccc(F)c(Cl)c3)c2cc1NC(=O)/C=C/CN(C)C` [PELITINIB], the Kd in assay [1], in assay [2], in assay [3], in assay [4], in assay [5] and in assay [6] was > 30 µM (inactive) each time. Besides, the Kd (in [7]; in [8]; on Activated CDC42 kinase 1) was > 30 µM (inactive) in each case.

For `CCCCCCCCCCCCCCCCCCOP(=O)([O-])OC1CC[N+](C)(C)CC1` [PERIFOSINE], the Kd in assay [1], in assay [2], in [3], in [4], in assay [5] and in [6] was > 30 µM (inactive) throughout. In addition, the Kd (in [7]; in [8]; at Activated CDC42 kinase 1) was > 30 µM (inactive) throughout.

For `Cc1nc(Nc2n[nH]c3c2CN(C(=O)N[C@H](CN(C)C)c2ccccc2)C3(C)C)c2sccc2n1` [PF-03758309], the Kd is > 30 µM (inactive) in [1]; > 30 µM (inactive) in assay [2]; > 30 µM (inactive) in assay [3]; 0.434 µM (active) in [4]; 1.4 µM (active) in assay [5]; > 30 µM (inactive) in assay [6]. For the same compound, the Kd is > 30 µM (inactive) in assay [7], 0.728 µM (active) in [8] and > 30 µM (inactive) on Activated CDC42 kinase 1.

Take `Cc1cnc(NC(=O)Nc2cc(Br)c(C)cc2OC[C@@H]2CNCCO2)cn1` [RABUSERTIB]: the Kd in [1], in assay [2], in [3], in assay [4], in assay [5] and in [6] was > 30 µM (inactive) each time. Also, the Kd (in assay [7]; in assay [8]; at Activated CDC42 kinase 1) was > 30 µM (inactive) throughout.

On to `CO[C@H]1C[C@@H]2CC[C@@H](C)[C@@](O)(O2)C(=O)C(=O)N2CCCC[C@H]2C(=O)O[C@H]([C@H](C)C[C@@H]2CC[C@@H](OP(C)(C)=O)[C@H](OC)C2)CC(=O)[C@H](C)/C=C(\C)[C@@H](O)[C@@H](OC)C(=O)[C@H](C)C[C@H](C)/C=C/C=C/C=C/1C` [RIDAFOROLIMUS], for which the Kd in [1], in [2], in [3], in assay [4], in assay [5] and in assay [6] was > 30 µM (inactive) in each case. For the same compound, the Kd (in assay [7]; in assay [8]; at Activated CDC42 kinase 1) was > 30 µM (inactive) in each case.

On to `N#CC1(c2ccc(NC(=O)c3cccnc3NCc3ccncc3)cc2)CCCC1` [RIVOCERANIB], for which the Kd in assay [1], in assay [2], in [3], in [4], in [5] and in assay [6] was > 30 µM (inactive) throughout. For the same compound, the Kd in assay [7] is > 30 µM (inactive); in assay [8], 0.111 µM (active); on Activated CDC42 kinase 1, > 30 µM (inactive).

With `O=c1[nH]ccc2cc(OC3CCNCC3)ccc12` [SAR-407899 FREE BASE], the Kd in assay [1], in assay [2], in [3], in assay [4], in assay [5] and in [6] was > 30 µM (inactive) each time. In addition, the Kd (in [7]; in [8]; at Activated CDC42 kinase 1) was > 30 µM (inactive) each time.

What is called Kd is the free concentration of one partner at which half of the binding sites on the other are occupied at equilibrium, for simple one-to-one binding.
